Reference: article PMC4104496 (Clinical cancer research : an official journal of the …, 2012)
Like-named read-outs stand apart in the source and are kept apart here.

What was measured:
[1] = for Cmax/dose / Tmax: iv
[2] = clinical; settings: human, in vivo, iv

Which AUC/dose ([1]; human, in vivo) does the source give for `CCc1c2c(nc3ccc(OC(=O)N4CCC(NCCCCC(=O)O)CC4)cc13)-c1cc3c(c(=O)n1C2)COC(=O)C3(O)CC` (stereo not drawn) [APC, 7-ethyl-10-(4-N-(5-aminopentanoic acid)-1-piperidine)carbonyloxycamptothecin] here?
Its AUC/dose is 13 (73) h*ng/mL/mg/m^2.

And the “CL or CL/F” value ([1]; human, in vivo)?
The value was 96 (49) L/h/m^2.

What about the “T1/2 (terminal elimination half-life)” value ([1]; human, in vivo) of the same molecule?
The value was 58 (8) d.

What about the terminal disposition half-life ([1]; human, in vivo) of the same molecule?
Its terminal disposition half-life is 53 days.

And the Cmax/dose ([1]; human, in vivo)?
The Cmax/dose was 0.08 (118) ng/mL/mg/m^2.

What about the Tmax ([1]; human, in vivo) of the same molecule?
Its Tmax is 20 (41) h.

What about the “V or V/F” value ([1]; in vivo) of the same molecule?
The value was 170 L/m^2.

What about the trough concentrations ([1]; in vivo) of the same molecule?
The trough concentrations was “detectable”.

For `CCc1c2c(nc3ccc(OC(=O)N4CCC(N)CC4)cc13)-c1cc3c(c(=O)n1C2)COC(=O)[C@]3(O)CC` [NPC, 7-ethyl-10-(4-amino-1-piperidino) carbonyloxycamptothecin], which plasma concentrations ([1]; in vivo) is on record?
The plasma concentrations was “near the limit of quantitation”.

Which “T1/2 (terminal elimination half-life)” value ([1]; Mean (%CV), plasma, 76 patients, after etirinotecan pegol 58 to 245 mg/m^2) does the source give for `CCc1c2c(nc3ccc(O[C@@H]4O[C@H](C(=O)O)[C@@H](O)[C@H](O)[C@H]4O)cc13)-c1cc3c(c(=O)n1C2)COC(=O)[C@]3(O)CC` [SN-38-G, SN-38-glucuronide] here?
Its value is 61 (37) d.

What about the trough concentrations ([1]; after etirinotecan pegol dosing with all 3 schedules) of the same molecule?
The trough concentrations was “detectable”.

What about the terminal disposition half-life ([1]; plasma, patients, after etirinotecan pegol administration) of the same molecule?
Its terminal disposition half-life is 61 days.

With `CCc1c2c(nc3ccc(O)cc13)-c1cc3c(c(=O)n1C2)COC(=O)[C@]3(O)CC` [SN-38] as the molecule, how does the AUC/dose ([1]; human, in vivo) read?
The AUC/dose was 8 (52) h*ng/mL/mg/m^2.

And the “CL or CL/F” value ([1]; human, in vivo)?
Its value is 170 (59) L/h/m^2.

What about the “T1/2 (terminal elimination half-life)” value ([1]; human, in vivo) of the same molecule?
The value was 50 (28) d.

And the Cmax/dose ([1]; human, in vivo)?
Its Cmax/dose is 0.02 (55) ng/mL/mg/m^2.

And the Tmax ([1]; human, in vivo)?
The Tmax was 13 (170) h.

And the “V or V/F” value ([1]; in vivo)?
The value was 27 L/m^2.

What about the trough concentrations ([1]; in vivo) of the same molecule?
Its trough concentrations is “detectable”.

Which results are given for `CCc1c2c(nc3ccc(OC(=O)N4CCC(N5CCCCC5)CC4)cc13)-c1cc3c(c(=O)n1C2)COC(=O)[C@]3(O)CC` [irinotecan, reference compound]?
trough concentrations ([1]; in vivo): detectable; Tmax [2]: 0.167 days
